From patent US5385833A, “Pseudomonas sp. ATCC No. 49794 alcohol dehydrogenase” (The Scripps Research Institute, priority 1992, dated 1995)

Test system: Pseudomonas sp. strain PED alcohol dehydrogenase
Assay: PED alcohol dehydrogenase enzyme assay, reduction of carbonyl substrates (relative rates)
Format: biochemical
Conditions: not given

| SMILES | Relative rate |
| --- | --- |
| O=C(c1ccccc1)C(F)(F)F [Compound 1, trifluoroacetophenone] | 7 |
| CC(=O)C(=O)c1ccccc1 [Compound 3, 1-phenyl-1,2-propanedione] | 34 |
| COC(=O)CC(=O)CCl [Compound 9, methyl 4-chloro-3-oxobutanoate] | 4 |
| CC(=O)CCC=C(C)C [Compound 10, 6-methyl-5-hepten-2-one] | 6 |
| CC(=O)CCCCl [Compound 11, 5-chloro-2-pentanone] | 5 |
| O=C(CCCCl)c1ccc(F)cc1 [Compound 16] | 0 |
| CC(=O)CCC=C(C)C [Compound 23] | 7 |
| CC(=O)C(Cl)C(C)=O [Compound 26] | 336 |
| COC(=O)CC(C)=O [Compound 27] | 135 |
| CC(=O)CCC(C)=O [Compound 28] | 9 |
| O=C(CCl)CCl [Compound 36] | 6 |
| CC(C)[C@@H]1CC[C@@H](C)CC1=O [Compound 41] | 3.4 |
| CN(C)CCC(=O)c1ccccc1 [Compound 49] | 8 |
| CC(=O)C#Cc1ccccc1 [Compound 51] | < 0.1 |
| CC(=O)/C=C/c1ccccc1 [Compound 54] | 0 |
| CCC(=O)c1ccccc1 [Compound 58] | < 1 |
| CCC(C)=O [Compound 59] | 100 |
| CCCC(C)=O [Compound 60] | 6 |
| CCCCC(C)=O [Compound 61] | 5 |
| C#CC(C)=O [Compound 64, 1-Butyn-3-one] | 1 |
| CC(=O)C(C)Cl (stereo not drawn) [Compound 65] | 11 |

Same assay, conditions: Table 1; reduction, 10 mM ketone, 0.45 mM NADH, PED, change in absorbance at 340 nm; Compound 2 = 1 (2.1 U/mg enzyme)

| SMILES | Relative rate |
| --- | --- |
| O=C[C@@H]1C[C@H]1c1ccccc1 (relative stereo) [Compound 5, 1-carboxaldehyde-2-phenylcyclopropane] | 7 |
| CC(=O)c1ccccc1 [Compound 2, acetophenone] | 1 |
| COC(=O)C(=O)c1ccccc1 [Compound 4, methyl benzoylformate] | 4 |
| CC(=O)CCc1ccccc1 [Compound 6, 4-phenyl-2-butanone] | 6 |
| O=C(c1ccccc1)C1CC1 [Compound 7, phenyl cyclopropyl ketone] | < 1 |
| O=C(CCCCl)c1ccccc1 [Compound 8] | 4 |
| CCCCC(=O)c1ccco1 [Compound 12] | < 0.1 |
| CCCCCC(=O)CC [Compound 13, 3-octanone] | 3 |
| O=C(CCl)c1ccc(O)c(O)c1 [Compound 14] | < 0.1 |
| O=C(CCCCl)c1ccc(O)cc1 [Compound 15] | 0 |
| O=C(CCCCl)c1cccs1 [Compound 17] | 4 |
| O=C(CC(=O)C(F)(F)F)c1cccs1 [Compound 18] | 0 |
| CC(=O)c1ccco1 [Compound 19] | 0 |
| COc1coc(C(C)=O)c1OC [Compound 20] | 0.6 |
| O=C1CCCCc2ccccc21 [Compound 21] | 4 |

Same assay, conditions: Table 2; determined as described in Table 1 (10 mM ketone, 0.45 mM NADH, 340 nm)

| SMILES | Relative rate |
| --- | --- |
| C=CCCC(C)=O [Compound 22] | 8 |
| COC(C)=CC(C)=O [Compound 24] | 0 |
| CC(=O)CC(C)=O [Compound 25] | 32 |
| CC(=O)CCC(=O)O [Compound 29] | 0 |
| CCCCCC(=O)C(=O)O [Compound 30] | 0 |
| COC(=O)C1CCCC1=O (stereo not drawn) [Compound 31] | 22 |
| CC1C(=O)CCC1=O [Compound 32] | 0 |
| CCOC(=O)CC(=O)CC [Compound 33] | 6 |
| C=CC(=O)CCCCC [Compound 34] | 6 |
| CCCCCC(=O)CC [Compound 35] | 2 |
| C#CC(=O)CCl [Compound 37] | 2 |
| C#CC(=O)CCC(=O)OC [Compound 38, Methyl-4-oxo-5-hexynoate] | < 0.1 |
| C#CC(=O)CCC [Compound 39, 1-Hexyn-3-one] | 0 |
| O=C1C=CCCC1 [Compound 42] | 0 |
| CC1=CC(=O)CCC1 [Compound 43] | 0 |
| O=C1C2CCC(C2)C1Cl (stereo not drawn) [Compound 45] | 2 |
| CC(=O)C1CC2C=CC1C2 (stereo not drawn) [Compound 46] | 0 |

| SMILES | Relative rate |
| --- | --- |
| O=C1CC2C=CC1C2 (stereo not drawn) [Compound 47] | 0 |
| CC(=O)COc1ccccc1 [Compound 48] | 7 |
| CCOC(OCC)C(=O)c1ccccc1 [Compound 50] | < 0.1 |
| CC(=O)c1ccc2c(c1)OCCO2 [Compound 52] | 0 |
| CC(=O)c1c[nH]c2ccccc12 [Compound 53] | 0 |
| CC(=O)C1CCc2ccccc2C1=O (stereo not drawn) [Compound 55] | 0 |
| O=C1CCSc2ccccc21 [Compound 56] | 0 |
| CC(=O)c1ccccn1 [Compound 57] | 1.8 |
| CCCCCC(C)=O [Compound 62] | 5 |
| CC(=O)C(C)O (stereo not drawn) [Compound 63] | 2 |
| CC(=O)C1CC1 [Compound 66] | 11 |
| CSC(C)C(C)=O (stereo not drawn) [Compound 67] | 5 |
| CC(=O)C(C)CO (stereo not drawn) [Compound 68] | 0 |
| COC(OC)C(C)=O [Compound 69] | 5 |
| C/C=C/C(C)=O [Compound 70] | < 0.1 |
| CO/C=C/C(C)=O [Compound 71] | 0 |

Same assay, conditions: footnote b of Table 1; 10 mM ketone, 0.45 mM NADH

| SMILES | Rate of reduction corresponding to relative rate 1 |
| --- | --- |
| CC(=O)c1ccccc1 [Compound 2, acetophenone] | 2.1 U/mg enzyme |

Same assay, conditions: statement in words on Table 1

| SMILES | Substrate quality compared with acetophenone |
| --- | --- |
| CC(=O)CCc1ccccc1 [Compound 6, 4-phenyl-2-butanone] | as good a substrate as is acetophenone |

Test system: PED alcohol dehydrogenase
Assay: Kinetics and product inhibition of PED alcohol dehydrogenase, oxidation of 2-propanol with NAD
Format: biochemical, Pseudomonas sp. strain PED
Conditions: isolated PED alcohol dehydrogenase

| SMILES | Km |
| --- | --- |
| CC(C)O [Compound 2-propanol, 2-propanol] | 75 µM |
| NC(=O)c1ccc[n+]([C@@H]2O[C@H](COP(=O)([O-])OP(=O)(O)OC[C@H]3O[C@@H](n4cnc5c(N)ncnc54)[C@H](O)[C@@H]3O)[C@@H](O)[C@H]2O)c1 [NAD, nicotinamide adenine dinucleotide] | 525 µM |

Same assay, conditions: oxidation of 2-propanol

| SMILES | Product inhibition type versus 2-propanol | Product inhibition type versus NAD |
| --- | --- | --- |
| NC(=O)C1=CN([C@@H]2O[C@H](COP(=O)(O)OP(=O)(O)OC[C@H]3O[C@@H](n4cnc5c(N)ncnc54)[C@H](O)[C@@H]3O)[C@@H](O)[C@H]2O)C=CC1 [NADH, reduced nicotinamide adenine dinucleotide] | noncompetitive inhibitors | competitive inhibition |
| CC(C)=O [acetone] | noncompetitive inhibitors | noncompetitive inhibition |

Same assay, conditions: with respect to 2-propanol under saturating NAD conditions

| SMILES | specific activity |
| --- | --- |
| CC(C)O [Compound 2-propanol, 2-propanol] | 36 U/mg |
